Target: T1, glucokinase (GK), residues 12-465 of the human enzyme (Homo sapiens, UniProt P35557)
T1 construct: I.D. No. 1 corresponds to residues 12-465 of glucokinase; made in house; host or cells: E. coli DH10b-Tlr
T1 sequence (P35557 with tags, fused parts or gaps isoform P35557-2): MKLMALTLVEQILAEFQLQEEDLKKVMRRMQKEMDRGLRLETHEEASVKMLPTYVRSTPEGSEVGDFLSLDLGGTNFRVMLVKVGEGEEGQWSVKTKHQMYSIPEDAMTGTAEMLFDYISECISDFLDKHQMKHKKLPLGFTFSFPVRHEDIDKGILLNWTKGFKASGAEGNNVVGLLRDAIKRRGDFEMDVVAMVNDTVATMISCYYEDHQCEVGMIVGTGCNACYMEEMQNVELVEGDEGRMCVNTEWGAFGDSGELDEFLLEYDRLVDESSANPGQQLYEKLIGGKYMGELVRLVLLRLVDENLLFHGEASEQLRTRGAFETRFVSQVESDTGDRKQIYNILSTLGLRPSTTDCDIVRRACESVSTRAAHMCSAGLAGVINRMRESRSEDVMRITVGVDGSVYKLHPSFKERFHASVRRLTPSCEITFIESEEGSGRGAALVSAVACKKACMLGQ
Test: Enzymatic glucokinase activity assay (KinaseGlo luminescence, ATP consumption)
Type: biochemical
Details: 5 μM ATP, 5 mM Glucose; for EC50: GK activation, Kact = concentration giving 50% of the maximal increase in GK activity, read-out: pKact; for Emax: calculated maximal gain in GK enzyme activity at a saturating concentration of the compound, read-out: % ACTmax
From the text: The activity of compounds as glucokinase activators may be assayed in vitro, in vivo or in a cell line. Provided below is an enzymatic glucokinase activity assay.
Purified glucokinase may be obtained as follows. DNA encoding residues 12-465 of the full-length sequence of the human enzyme may be amplified by PCR and cloned into the HindIII and EcoRI sites of pFLAG-CTC (Sigma). SEQ. I.D. No. 1 corresponds to residues 12-465 of glucokinase.
The expression of recombinant glucokinase protein may be carried out by transformation and growth of DH10b-Tlr E. coli cells incorporating the (pFLAG-CTC) plasmid in LB media. Protein expression can be induced in this system by the addition of IPTG to the culture medium.
Recombinant protein may be isolated from cellular extracts by passage over Sepharose Q Fast Flow resin (Pharmacia). This partially purified GK extract may then be further purified by a second passage over Poros HQ 10 (Applied Biosystems). The purity of GK may be determined on denaturing SDS-PAGE gel. Purified GK may then be concentrated to a final concentration of 20.0 mg/ml. After flash freezing in liquid nitrogen, the proteins can be stored at −78° C. in a buffer containing 25 mM TRIS-HCl pH 7.6, 50 mM NaCl, and 0.5 mM TCEP.
The activation properties of compounds for GK may be determined using a black 384-well-plate format under the following reaction conditions: 25 mM Hepes pH 7.2, 25 mM NaCl, 10 mM MgCl2, 0.01% Brij35, 1 mM DTT, 5 μM ATP, 5 mM Glucose 2% DMSO. The amount of ATP consumed may be determined quantitatively by addition of equal volume of luciferase reagent (luciferase+beetle luciferin—KinaseGlo Luminescent Kinase Assay kit from Promega). The luminescence intensity may be measured by using the Analyst HT from LJL Biosystems.
The assay reaction may be initiated as follows: 4 μl of substrate mixture (12.5 μM ATP and 12.5 mM Glucose) was added to each well of the plate, followed by the addition of 2 μl of activator (2 fold serial dilutions for 11 data points for each activator) containing 10% DMSO. 4 μL of 1.25 nM GK solution may be added to initiate the reaction. The reaction mixture may then be incubated at room temperature for 60 min, and quenched and developed by addition of 10 μL of luciferase reagent. Luminescence intensities of the resulting reaction mixtures may be measured after a 10 min incubation at room temperature. The luminescence intensity may be measured by using the Analyst HT from LJL Biosystems.
pKact and % ACTmax values may be calculated by non-linear curve fitting of the compound concentrations and luminescence intensities to a standard inhibition/activation equation.

| SMILES | EC50 | Emax |
| --- | --- | --- |
| O=C(Nc1nccs1)[C@H](CC1CCCCC1)N1CCN(S(=O)(=O)c2cc(Cl)cc(Cl)c2)CC1=O [Example 57, (S)-3-cyclohexyl-2-(4-(3,5-dichlorophenylsulfonyl)-2-oxopiperazin-1-yl)-N-(thiazol-2-yl)propanamide] | ≤ 631 nM | 74.1 to 97% |
| O=C(Nc1nccs1)[C@H](CC1CCCCC1)N1CCN(C(=S)Nc2ccc(OC(F)F)cc2)CC1=O [Example 135, (S)-3-cyclohexyl-2-(4-(4-(difluoromethoxy)phenylcarbamothioyl)-2-oxopiperazin-1-yl)-N-(thiazol-2-yl)propanamide] | ≥ 3160 nM | 97.1 to 107% |
| O=C(Nc1ncc(F)s1)C(CC1CCOCC1)N1CCN(S(=O)(=O)c2cccc(F)c2)CC1=O (centres unmarked) [Example 148, 2-(4-(3-fluorophenylsulfonyl)-2-oxopiperazin-1-yl)-N-(5-fluorothiazol-2-yl)-3-(tetrahydro-2H-pyran-4-yl)propanamide] | 794 to 1260 nM | 108 to 119% |
| COc1cccc(S(=O)(=O)N2CCN([C@@H](CC3CCCCC3)C(=O)Nc3nccs3)C(=O)C2)c1 [Example 92, (S)-3-cyclohexyl-2-(4-(3-methoxyphenylsulfonyl)-2-oxopiperazin-1-yl)-N-(thiazol-2-yl)propanamide] | 794 to 1260 nM | ≥ 119% |
| COc1ccc(S(=O)(=O)N2CCN([C@@H](CC3CCCCC3)C(=O)Nc3nccs3)C(=O)C2)cc1F [Example 99, (S)-3-cyclohexyl-2-(4-(3-fluoro-4-methoxyphenylsulfonyl)-2-oxopiperazin-1-yl)-N-(thiazol-2-yl)propanamide] | 794 to 1260 nM | 108 to 119% |
| CC(C)C[C@@H](C(=O)Nc1ncc(Cl)s1)N1CCN(S(=O)(=O)C2CC2)CC1=O [Example 10, (S)—N-(5-chlorothiazol-2-yl)-2-(4-(cyclopropylsulfonyl)-2-oxopiperazin-1-yl)-4-methylpentanamide] | 794 to 1260 nM | ≥ 119% |
| CC(=O)N1CCC(CC(C(=O)Nc2nccs2)N2CCN(S(=O)(=O)C3CC3)CC2=O)C1 (centres unmarked) [Example 20, 3-(1-acetylpyrrolidin-3-yl)-2-(4-(cyclopropylsulfonyl)-2-oxopiperazin-1-yl)-N-(thiazol-2-yl)propanamide] | 794 to 1260 nM | 108 to 119% |
| COc1ccc2nc(NC(=O)C(CC3CCOCC3)N3CCN(S(=O)(=O)C4CCCC4)CC3=O)sc2n1 (centres unmarked) [Example 29, 2-(4-(cyclopentylsulfonyl)-2-oxopiperazin-1-yl)-N-(5-methoxythiazolo[5,4-b]pyridin-2-yl)-3-(tetrahydro-2H-pyran-4-yl)propanamide] | 794 to 1260 nM | 108 to 119% |
| NC(=O)Nc1ccc(S(=O)(=O)N2CCN([C@@H](CC3CCCCC3)C(=O)Nc3nccs3)C(=O)C2)cc1 [Example 64, (S)-3-cyclohexyl-2-(2-oxo-4-(4-ureidophenylsulfonyl)piperazin-1-yl)-N-(thiazol2-yl)propanamide] | ≥ 3160 nM | 97.1 to 107% |
| O=C(Nc1ncc(Cl)s1)[C@H](CC1CCOCC1)N1CCN(S(=O)(=O)c2cccc(F)c2)CC1=O [Example 150, (S)-N-(5-chlorothiazol-2-yl)-2-(4-(3-fluorophenylsulfonyl)-2-oxopiperazin-1-yl)-3-(tetrahydro-2H-pyran-4-yl)propanamide] | ≤ 631 nM | 108 to 119% |
| O=C(Nc1nccs1)[C@H](CC1CCCCC1)N1CCN(S(=O)(=O)c2ccc(F)c(F)c2)CC1=O [Example 103, (S)-3-cyclohexyl-2-(4-(3,4-difluorophenylsulfonyl)-2-oxopiperazin-1-yl)-N-(thiazol-2-yl)propanamide] | ≤ 631 nM | 108 to 119% |
| O=C(Nc1nccs1)[C@H](CC1CCCCC1)N1CCN(S(=O)(=O)c2cccc(Cl)c2)CC1=O [Example 67, (S)-2-(4-(3-chlorophenylsulfonyl)-2-oxopiperazin-1-yl)-3-cyclohexyl-N-(thiazol-2-yl)propanamide] | ≤ 631 nM | 108 to 119% |
| O=C(Nc1nccs1)[C@H](CC1CCCCC1)N1CCN(C(=S)NCc2cccc(F)c2)CC1=O [Example 119, (S)-3-cyclohexyl-2-(4-(3-fluorobenzylcarbamothioyl)-2-oxopiperazin-1-yl)-N-(thiazol-2-yl)propanamide] | 794 to 1260 nM | 97.1 to 107% |

Second part, the compound after the results:

| EC50 | Emax | SMILES |
| --- | --- | --- |
| 794 to 1260 nM | 97.1 to 107% | COC(=O)c1cc(S(=O)(=O)N2CCN([C@@H](CC3CCCCC3)C(=O)Nc3nccs3)C(=O)C2)oc1C [Example 159, (S)-methyl 5-(4-(3-cyclohexyl-1-oxo-1-(thiazol-2-ylamino)propan-2-yl)-3-oxopiperazin-1-ylsulfonyl)-2-methylfuran-3-carboxylate] |
| 794 to 1260 nM | 74.1 to 97% | O=C(c1cccc(S(=O)(=O)N2CCN([C@@H](CC3CCCCC3)C(=O)Nc3nccs3)C(=O)C2)c1)c1ccccn1 [Example 178, (S)-3-cyclohexyl-2-(2-oxo-4-(3-picolinoylphenylsulfonyl)piperazin-1-yl)-N-(thiazol-2-yl)propanamide] |
| 1580 to 2510 nM | 74.1 to 97% | O=C(Nc1nccs1)[C@H](CC1CCCCC1)N1CCN(S(=O)(=O)c2ccc(Br)cc2)CC1=O [Example 204, (S)-2-(4-(4-bromophenylsulfonyl)-2-oxopiperazin-1-yl)-3-cyclohexyl-N-(thiazol-2-yl)propanamide] |
| ≤ 631 nM | 108 to 119% | O=C(Nc1nccs1)[C@H](CC1CCCCC1)N1CCN(S(=O)(=O)c2cc(F)ccc2F)CC1=O [Example 184, (S)-3-cyclohexyl-2-(4-(2,5-difluorophenylsulfonyl)-2-oxopiperazin-1-yl)-N-(thiazol-2-yl)propanamide] |
| 794 to 1260 nM | ≤ 74% | COc1cc(C)c(S(=O)(=O)N2CCN([C@@H](CC3CCCCC3)C(=O)Nc3nccs3)C(=O)C2)c(C)c1C [Example 182, (S)-3-cyclohexyl-2-(4-(4-methoxy-2,3,6-trimethylphenylsulfonyl)-2-oxopiperazin-1-yl)-N-(thiazol-2-yl)propanamide] |
| 1580 to 2510 nM | ≤ 74% | COC(=O)c1cc(C)c(S(=O)(=O)N2CCN([C@@H](CC3CCCCC3)C(=O)Nc3nccs3)C(=O)C2)s1 [Example 157, (S)-methyl 5-(4-(3-cyclohexyl-1-oxo-1-(thiazol-2-ylamino)propan-2-yl)-3-oxopiperazin-1-ylsulfonyl)-4-methylthiophene-2-carboxylate] |
| ≤ 631 nM | ≥ 119% | O=C(Nc1nccs1)[C@H](CC1CCCCC1)N1CCN(S(=O)(=O)c2cc(Cl)ccc2F)CC1=O [Example 185, (S)-2-(4-(5-chloro-2-fluorophenylsulfonyl)-2-oxopiperazin-1-yl)-3-cyclohexyl-N-(thiazol-2-yl)propanamide] |
| 1580 to 2510 nM | 108 to 119% | Cc1ccc(S(=O)(=O)N2CCN([C@@H](CC3CCCCC3)C(=O)Nc3nccs3)C(=O)C2)cc1 [Example 202, (S)-3-cyclohexyl-2-(2-oxo-4-tosylpiperazin-1-yl)N-(thiazol-2-yl)propanamide] |
| 1580 to 2510 nM | 74.1 to 97% | O=C(Nc1nccs1)[C@H](CC1CCCCC1)N1CCN(S(=O)(=O)Cc2cc(Cl)cc(Cl)c2)CC1=O [Example 212, (S)-3-cyclohexyl-2-(4-(3,5-dichlorobenzylsulfonyl)-2-oxopiperazin-1-yl)-N-(thiazol-2-yl)propanamide] |
